Laboratory results from article PMC9736344, “Discovery of a Novel Bloom’s Syndrome Protein (BLM) Inhibitor Suppressing Growth and Metastasis of Prostate Cancer” (International Journal of Molecular Sciences, 2022).

biological target: T1, Bloom's syndrome protein (BLM) helicase (Homo sapiens, UniProt P54132); experiment: fluorescence polarization DNA-binding and unwinding assays, EMSA, malachite green ATPase assay with purified BLM642-1290; CD spectral change; format: biochemical; conditions: not given
T1 construct: BLM 642-1290
T1 sequence (P54132 642-1290): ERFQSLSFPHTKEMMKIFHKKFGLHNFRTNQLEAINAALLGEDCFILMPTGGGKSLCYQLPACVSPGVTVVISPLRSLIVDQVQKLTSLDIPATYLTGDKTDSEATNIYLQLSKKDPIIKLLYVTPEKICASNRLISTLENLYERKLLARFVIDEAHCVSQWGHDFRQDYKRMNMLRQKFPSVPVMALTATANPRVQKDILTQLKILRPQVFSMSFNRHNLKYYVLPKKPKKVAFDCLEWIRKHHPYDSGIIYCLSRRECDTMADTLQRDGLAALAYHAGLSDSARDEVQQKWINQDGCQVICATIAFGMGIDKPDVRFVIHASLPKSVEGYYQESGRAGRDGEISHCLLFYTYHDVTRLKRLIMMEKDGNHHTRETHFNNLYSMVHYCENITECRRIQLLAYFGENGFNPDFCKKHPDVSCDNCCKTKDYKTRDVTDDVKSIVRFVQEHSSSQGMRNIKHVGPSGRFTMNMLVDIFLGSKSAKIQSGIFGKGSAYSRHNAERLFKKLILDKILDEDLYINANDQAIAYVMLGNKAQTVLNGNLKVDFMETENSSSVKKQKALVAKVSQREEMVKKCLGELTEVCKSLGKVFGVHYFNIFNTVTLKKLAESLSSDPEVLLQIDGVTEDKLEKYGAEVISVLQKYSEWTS

| IC50 [µM] | Structure (SMILES) |
| --- | --- |
| < 10 | Cc1cc(C2(c3ccc(O)c(C)c3)OC(=O)c3ccccc32)ccc1O [AO/854, AO/854/43447428] |

biological target: T1, Bloom's syndrome protein (BLM) helicase; experiment: biochemical; set-up: fluorescence polarization; displacement of fluorescein-dsDNA bound to BLM642-1290; relative DNA binding activity; conditions: dsDNA binding; read-out: % of control remaining
Description: First, fluorescein-labeled dsDNA (2 nM) was added into a reaction buffer (20 mM Tris, 25 mM NaCl, 3 mM MgCl2, 0.1 mM DTT, pH 7.9) to detect the fluorescence anisotropy until it was stable. Then, 500 nM BLM^642−1290 was added to equilibrate the DNA substrate, and the fluorescence anisotropy value was then detected. Finally, small molecules with a concentration of 10 μM were added, and the fluorescence anisotropy value was detected until it was stable. The total reaction volume was adjusted to 150 μL by adjusting with ddH2O volume. The ability of AO/854 to inhibit the ability of the BLM^642−1290 to bind to dsDNA and ssDNA was also assessed using a fluorescence polarization assay. The method used was similar to that described above, except different concentrations of AO/854 were added to the reaction. By using the same protocol, we detected AO/854 affecting DNA unwinding of BLM^642−1290. The 0–50 μM concentrations of AO/854 were added to the reaction. In the final step, 0.2 mM of ATP was added to the reaction. The fluorescence anisotropy value was detected until it was stable. The inhibiting ratio of BLM on DNA binding activity and DNA unwinding activity was determined. By using high-throughput virtual and protein-based screening assays, we discovered an isobenzofuranone compound with the desired properties. The flow chart of our work is as follows (Figure 2A). Before the first round of docking using the Autodock Vina, an optimized database (approximately 200,000 compounds) was achieved by filtering using Lipinski’s rule of five and Veber rules and removing duplicate molecules from the Specs database (Figure S1). The top 1000 compounds from the previous step were docked with Autodock (Figure S2). The top 30 small molecules (Table S1) obtained through virtual screening were dissolved in DMSO and prepared into mother liquor at a concentration of 20 mM. We purified a truncated structure of BLM that retained helicase activity in vitro (Figure S3), selected a fluorescein-labeled dsDNA as a substrate, and used a fluorescence polarization assay to determine if the promising compounds disrupted the binding between BLM and DNA.

| Structure (SMILES) | remaining activity at 10 µM [%] |
| --- | --- |
| O=[N+]([O-])c1ccc(S(=O)(=O)Oc2ccc(C3(c4ccc(OS(=O)(=O)c5ccc([N+](=O)[O-])cc5)cc4)c4ccccc4-c4ccccc43)cc2)cc1 [compound 1] | 98.9 |
| Cc1cc(C2(c3ccc(O)c(C)c3)OC(=O)c3ccccc32)ccc1O [compound 2] | 31.5 |
| CCCCC(OC(=O)c1ccc(N2C(=O)C3C4c5ccccc5C(c5ccccc54)C3C2=O)cc1)C(=O)c1ccc(-c2ccccc2)cc1 (centres unmarked) [compound 10] | 103 |
| CC(=O)Nc1ccc(N2C(=O)c3ccc(C(=O)c4ccc5c(c4)C(=O)N(c4ccc(NC(C)=O)cc4)C5=O)cc3C2=O)cc1 [compound 28] | 97.3 |

Second part, the compound after the results:

| remaining activity at 10 µM [%] | Structure (SMILES) |
| --- | --- |
| 94.9 | Cc1ccc(-c2csc3nc(SCC(=O)Nc4cccc5ccccc45)n(-c4ccccc4)c(=O)c23)o1 [compound 3] |
| 93.9 | Cc1ccc(-c2csc3nc(SCC(=O)Nc4ccc(C)c(C)c4)n(-c4ccccc4)c(=O)c23)o1 [compound 19] |
| 96.6 | O=C1c2cc(S(=O)(=O)Nc3cccc4ccccc34)ccc2-c2ccc(S(=O)(=O)Nc3cccc4ccccc34)cc21 [compound 20] |
